This is an account of results in publication PMC3598492, “Cannabinoid receptor type 2 (CB2)-selective N-aryl-oxadiazolyl-propionamides: synthesis, radiolabelling, molecular modelling and biological evaluation” (Organic and Medicinal Chemistry Letters, 2012).

The experiment deals with T1, hCB2 (Homo sapiens, UniProt P34972).
T1 construct: host or cells: CHO (hCB2-CHO), crude membrane homogenates
In words: Competitive [3H]CP55,940 binding on membrane homogenates of hCB2-CHO cells. The following applies: for Binding to hCB2 in words: hCB2-CHO. How it is done: CHO cell lines stably transfected with human CB1 (hCB1-CHO; obtained from Euroscreen, Gosselies, Belgium) or human CB2 (hCB2-CHO; obtained from Paul L. Prather, Department of Pharmacology and Toxicology, College of Medicine, University of Arkansas for Medical Sciences, USA) were cultured in Ham's F12 medium or Dulbecco's modified Eagle's medium (DMEM) with 10% fetal calf serum, 100 IU/mL penicillin, 100 μg/mL streptomycin and 250 or 400 μg/mL of the selection antibiotic Geneticin (G418), respectively. The cells were cultured in a humidified atmosphere with 5% CO2 at 37°C. Confluent cell layers of 175-cm^2 flasks were scraped; cells were harvested by centrifugation (800 rpm, 3 min), counted by trypan blue staining, suspended in 200 μL of 50 mM tris(hydroxymethyl)aminomethane (TRIS; pH 7.4) at 4°C and stored at −32°C until the binding experiment.
Competitive binding experiments were performed with crude membrane homogenates obtained from hCB1-CHO or hCB2-CHO cells as described above. […] Incubations were terminated by rapid filtration through a GF-B glass fibre filter pre-incubated for 90 min at room temperature in freshly prepared 0.5% polyvinylpyrrolidone + 0.1% Tween 20 solution using a 48-well cell harvester (Brandel, Gaithersburg, MD, USA).
The corresponding inhibition constants (Ki) of test compounds were derived from the IC50 values using the Cheng-Prusoff equation [49]. All binding experiments were performed in triplicates, and data are given as mean values from independent experiments.

Where [1] appears, read: read-out: Affinity (Ki) towards hCB2.

pKi: −log10 of the molar value. Like-named read-outs stand apart in the source and are kept apart here.

T1 sequence (P34972 whole entry): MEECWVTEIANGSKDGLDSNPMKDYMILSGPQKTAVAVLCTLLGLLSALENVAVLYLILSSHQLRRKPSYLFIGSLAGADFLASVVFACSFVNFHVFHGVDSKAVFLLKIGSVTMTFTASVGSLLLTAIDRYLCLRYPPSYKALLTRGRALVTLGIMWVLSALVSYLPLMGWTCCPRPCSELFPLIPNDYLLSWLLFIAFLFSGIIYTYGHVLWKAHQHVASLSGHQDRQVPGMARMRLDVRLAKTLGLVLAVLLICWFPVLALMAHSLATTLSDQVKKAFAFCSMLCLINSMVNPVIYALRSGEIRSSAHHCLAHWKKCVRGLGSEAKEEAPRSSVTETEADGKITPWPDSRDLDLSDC

Broadly, the pKi is the Ki on a negative log10 scale, so that one unit is a factor of ten. As for `CC(C)(C)c1cc(NC(=O)CCc2nc(-c3ccc(Br)nc3)no2)no1` [Compound 1a, 3-(3-(6-Bromopyridin-3-yl)-1,2,4-oxadiazol-5-yl)-N-(5-tert-butylisoxazol-3-yl)propanamide], the “Binding to hCB2 in words” value is on record as “high affinity”. Under setting [1], the negative-log Ki (pKi) is 7.84.
Take `CC(C)(C)c1cc(NC(=O)CCc2nc(-c3ccc(F)nc3)no2)no1` [Compound 1b, 3-(3-(6-Fluoropyridin-3-yl)-1,2,4-oxadiazol-5-yl)-N-(5-tert-butylisoxazol-3-yl)propanamide]: the “Binding to hCB2 in words” value is listed as “low affinity”. For the setting “hCB2 expressed in CHO cells, 0.5 nM [3H]CP55,940, Cheng-Prusoff, read-out: Affinity (Ki) towards hCB2”, the pKi is less than 4.00.
On to `CCn1ccc2cc(NC(=O)CCc3nc(-c4ccc(F)nc4)no3)ccc21` [Compound 3b, 3-(3-(6-Fluoropyridin-3-yl)-1,2,4-oxadiazol-5-yl)-N-(1-ethyl-1H-indol-5-yl)-propanamide], for which the “Binding to hCB2 in words” value was “low affinity”. In addition, the pKi under setting [1] was less than 4.00.
Consider `O=C(CCc1nc(-c2ccc(F)cc2Br)no1)Nc1ccc2[nH]c3ccccc3c2c1` [Compound 4e, 3-(3-(2-Bromo-4-fluorophenyl)-1,2,4-oxadiazol-5-yl)-N-(9H-carbazol-3-yl)propanamide], for which the “Binding to hCB2 in words” value is given as “no binding”. The pKi under setting [1] was less than 4.00.
Consider `Cn1c2ccccc2c2cc(NC(=O)CCc3nc(-c4ccc(F)cc4Br)no3)ccc21` [Compound 5e, 3-(3-(2-Bromo-4-fluorophenyl)-1,2,4-oxadiazol-5-yl)-N-(9-methyl-9H-carbazol-3-yl)propanamide], for which, under setting [1], the pKi was 6.60.
In the case of `CCn1c2ccccc2c2cc(NC(=O)CCc3nc(-c4ccc(Br)nc4)no3)ccc21` [Compound 6c, 3-(3-(6-Bromopyridin-3-yl)-1,2,4-oxadiazol-5-yl)-N-(9-ethyl-9H-carbazol-3-yl)propanamide], the “Binding to hCB2 in words” value is listed as “low affinity”. The pKi under setting [1] is 5.72.
`CCn1c2ccccc2c2cc(NC(=O)CCc3nc(-c4ccc([N+](=O)[O-])cc4C#N)no3)ccc21` [Compound 6f, 3-(3-(2-Cyano-4-nitrophenyl)-1,2,4-oxadiazol-5-yl)-N-(9-ethyl-9H-carbazol-3-yl)propanamide] gave a pKi of 8.23.
Take `CCn1c2ccccc2c2cc(NC(=O)CCc3nc(-c4ccc(N)cc4F)no3)ccc21` [Compound 6i, 3-(3-(4-Amino-2-fluorophenyl)-1,2,4-oxadiazol-5-yl)-N-(9-ethyl-9H-carbazol-3-yl)propanamide]: the pKi under setting [1] is less than 4.00.
On to `CCn1c2ccccc2c2cc(NC(=O)CCc3nc(-c4ccc(F)cc4O)no3)ccc21` [Compound 6j, 3-(3-(4-Fluoro-2-hydroxyphenyl)-1,2,4-oxadiazol-5-yl)-N-(9-ethyl-9H-carbazol-3-yl)propanamide], for which the pKi under setting [1] is 5.24.
Same read-out and setting: the value for `CCn1c2ccccc2c2cc(NC(=O)CCc3nc(-c4ccc(F)cc4OCCF)no3)ccc21` [Compound 6k, 3-(3-(4-Fluoro-2-(2-fluoroethoxy)phenyl)-1,2,4-oxadiazol-5-yl)-N-(9-ethyl-9H-carbazol-3-yl)-propanamide] was 5.50; that for `CCn1c2ccccc2c2cc(NC(=O)CCc3nc(-c4ccc(F)cc4OC)no3)ccc21` [Compound 6l, 3-(3-(4-Fluoro-2-methoxyphenyl)-1,2,4-oxadiazol-5-yl)-N-(9-ethyl-9H-carbazol-3-yl)-propanamide] was 6.65; that for `CCn1c2ccccc2c2cc(NC(=O)CCc3nc(-c4ccc(OC)cc4Br)no3)ccc21` [Compound 6m, 3-(3-(2-Bromo-4-methoxyphenyl)-1,2,4-oxadiazol-5-yl)-N-(9-ethyl-9H-carbazol-3-yl)propanamide] was less than 4.00.
